# Laboratory results from patent publication US7531545B2, “2-amino-3,4-dihydro-pyrido[3,4-d]pyrimidine derivatives useful as inhibitors of β-secretase (BACE)” (Janssen Pharmaceutica, N.V., priority 2005, dated 2009).
# pIC50: −log10 of the molar value. Where “and” joins values, the source holds several entries; their conditions need not be identical. Identical values can stand only once. Counter-ions that a name gives are not always drawn. Like-named read-outs stand apart in the source and are kept apart here.
# Biological target: human BACE-1 (Homo sapiens, UniProt P56817)
# Experiment: CEREP BACE Inhibition Assay
# Type: biochemical
# Details: for inhibition at 1 µM: read-out: % Inhibition @ 1.0 μM; for pIC50: read-out: IC50
# Experimental: More specifically the assay, run at 50 μL in a 96 well plate, evaluated the effect of test compound on the activity of the human BACE-1 quantified by measuring the formation of Mca-S-E-V-N-L-NH2 from […], using a recombinant enzyme. The test compound, reference compound or water (control) were added to a buffer containing 0.09 M sodium acetate (pH 4.5) and 0.25 μg BACE-1. Compound interference with the fluorimetric detection method due to autofluorescence was then checked by measurements at the wavelengths defined to evaluate the enzyme activity. […] For control basal measurement, the substrate was omitted from the reaction mixture. […] The standard inhibitory reference compound was OM99-2, which was tested in each experiment at several concentrations to obtain an inhibition curve from which its IC50 value was calculated.
# [1] = 1.0 μM, percent inhibition of the control activity, recombinant enzyme
# [2] = percent inhibition of the control activity, recombinant enzyme
# Sequence of human BACE-1 (P56817 46-501): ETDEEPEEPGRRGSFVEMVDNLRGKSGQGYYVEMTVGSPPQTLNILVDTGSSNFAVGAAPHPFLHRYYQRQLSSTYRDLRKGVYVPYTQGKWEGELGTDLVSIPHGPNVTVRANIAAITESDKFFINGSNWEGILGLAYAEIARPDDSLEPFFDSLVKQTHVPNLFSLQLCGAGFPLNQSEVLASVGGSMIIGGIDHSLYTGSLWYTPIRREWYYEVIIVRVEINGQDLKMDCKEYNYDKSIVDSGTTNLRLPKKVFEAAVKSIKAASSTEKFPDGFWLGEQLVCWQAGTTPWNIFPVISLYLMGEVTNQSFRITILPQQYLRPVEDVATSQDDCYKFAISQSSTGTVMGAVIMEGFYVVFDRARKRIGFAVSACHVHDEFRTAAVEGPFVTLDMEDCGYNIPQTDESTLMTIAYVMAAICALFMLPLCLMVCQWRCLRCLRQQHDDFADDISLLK
Compound,inhibition at 1 µM [1] [%],pIC50 (recombinant enzyme),inhibition at 0.3 µM [2] [%],also measured
CC(C)(C)CNCCC[C@@H](C1CCCCC1)N1Cc2cc(Oc3ccccc3)ncc2N=C1N [Compound 161],94,6.70,,
CC(C)[C@H](COCC1CCCCC1)N1Cc2cc(Oc3ccccc3)ncc2N=C1N [Compound 234],94,6.74,,
CC(C)(C)OCCN(Cc1ccc(F)cc1)C(=O)CC[C@@H](C1CCCCC1)N1Cc2cc(Oc3ccccc3)ncc2N=C1N [Compound 158],102,6.89,,
"CC(C)[C@H](CCC(=O)OCc1ccccc1)N1Cc2cc(Oc3ccccc3)ncc2N=C1N [Compound 231, 4-(2-Amino-6-phenoxy-4H-pyrido[3,4-d]pyrimidin-3-yl)-5-methyl-hexanoic acid benzyl ester]",97,6.89,,
CN(C(=O)CC[C@@H](C1CCCCC1)N1Cc2cc(Oc3ccccc3)ncc2N=C1N)[C@@H](COC(C)(C)C)C(=O)O [Compound 66],,6.59,96,
CC(C)[C@H](CCC(=O)N[C@H](COCc1ccccc1)C(=O)O)N1Cc2cc(Oc3ccccc3)ncc2N=C1N [Compound 54],,6.77,97,
"CC(C)(C)OC[C@H](CN1CCOCC1)NC(=O)CC[C@@H](C1CCCCC1)N1Cc2cc(Oc3ccccc3)ncc2N=C1N [Compound 102, 4-(2-Amino-6-phenoxy-4H-pyrido[3,4-d]pyrimidin-3-yl)-N-(2-(R)-tert-butoxy-1-morpholin-4-ylmethyl-ethyl)-4-(S)-cyclohexyl-butyramide]",,6.34,55,
CC(C)[C@H](CCC(=O)N[C@@H](COC(C)(C)C)CN1CCCCC1)N1Cc2cc(Oc3ccccc3)ncc2N=C1N [Compound 101],,6.49,43,
CC(C)OC(=O)[C@H](COC(C)(C)C)NC(=O)CC[C@@H](C1CCCCC1)N1Cc2cc(Oc3ccccc3)ncc2N=C1N [Compound 136],98,6.72,,
COC(=O)[C@H](COCc1ccccc1)N(C)C(=O)CC[C@@H](C1CCOCC1)N1Cc2cc(Oc3ccccc3)ncc2N=C1N [Compound 56],,7.12,93,
CN(CC[C@@H](C1CCCCC1)N1Cc2cc(Oc3ccccc3)ncc2N=C1N)C1CCCCC1 [Compound 206],91,6.74 and 6.92,,% Inhibition @ 1.0 μM [1]: 90%
CC(C)[C@H](COCc1cc(C(C)(C)C)no1)N1Cc2cc(Oc3ccccc3)ncc2N=C1N [Compound 237],87,6.57,,
"CC(C)[C@H](C(=O)N(C)CCc1ccccc1)N1Cc2cc(Oc3ccccc3)ncc2N=C1N [Compound 221, 2-(2-Amino-6-phenoxy-4H-pyrido[3,4-d]pyrimidin-3-yl)-3,N-dimethyl-N-phenethyl-butyramide hydrochloride salt (R enantiomer)]",52,6.01,,
"NC1=Nc2cnc(Oc3ccccc3)cc2CN1[C@@H](CCC(=O)N(CC(=O)O)C1CCCCC1)C1CCCCC1 [Compound 84, {[4-(2-Amino-6-phenoxy-4H-pyrido[3,4-d]pyrimidin-3-yl)-4-(S)-cyclohexyl-butyryl]cyclohexyl-amino}-acetic acid]",,7.00,100,
CC(C)[C@H](CCC(=O)N[C@H](COC(C)(C)C)C(=O)O)N1Cc2cc(Oc3ccccc3)ncc2N=C1N [Compound 88],,7.00,98,
CC(C)(C)CNCC[C@@H](C1CCCCC1)N1Cc2cc(Oc3ccccc3)ncc2N=C1N [Compound 214],57,6.03 and 6.00,,% Inhibition @ 1.0 μM [1]: 53%
CC(C)(C)OC[C@@H](NC(=O)CC[C@@H](C1CCCCC1)N1Cc2cc(Oc3ccccc3)ncc2N=C1N)C(=O)N[C@@H](CCC(=O)O)C(=O)O [Compound 225],,6.96,,% Inhibition @ 1.0 μM [1]: 96%
"NC1=Nc2cnc(Oc3ccccc3)cc2CN1[C@@H](CCC(=O)N(Cc1nnc[nH]1)C1CCCCC1)C1CCCCC1 [Compound 80, 4-(2-Amino-6-phenoxy-4H-pyrido[3,4-d]pyrimidin-3-yl)-4-(S),N-dicyclohexyl-N-(4H-[1,2,4]triazol-3-ylmethyl)-butyramide]",,6.77,97,
CC(C)C(COCC1CC(C2CCCCC2)=NO1)N1Cc2cc(Oc3ccccc3)ncc2N=C1N (stereo not drawn) [Compound 235],,,,"IC50 (IC50 (μM), recombinant enzyme): 0.61 µM; inhibition at 1 µM: 59%"
COC(=O)[C@@H](COC(C)(C)C)NC(=O)CC[C@@H](C(C)C)N1Cc2cc(Oc3ccccc3)ncc2N=C1N [Compound 87],,7.02,84,
NC1=Nc2cnc(Oc3ccccc3)cc2CN1[C@@H](CCCNC[C@H]1CCCO1)C1CCCCC1 [Compound 211],88,6.80,,
CC(C)(C)c1cn(CC[C@@H](C2CCCCC2)N2Cc3cc(Oc4ccccc4)ncc3N=C2N)nn1 [Compound 199],100,7.07,,

Compound,inhibition at 1 µM [1] [%],pIC50 (recombinant enzyme),inhibition at 0.3 µM [2] [%],also measured
"NC1=Nc2cnc(Oc3ccccc3)cc2CN1[C@@H](CCn1cc(C2CCCCC2)nn1)C1CCCCC1 [Compound 198, 3-[—(S)-cyclohexyl-3-(4-cyclohexyl-[1,2,3]triazol-1-yl)-propyl]-6-phenoxy-3,4-dihydro-pyrido[3,4-d]pyrimidin-2-ylamine]",95,6.85,,
CC(C)C(COCC1CC(CC(C)(C)C)=NO1)N1Cc2cc(Oc3ccccc3)ncc2N=C1N (stereo not drawn) [Compound 238],72,6.27,,
CC(C)(C)OC[C@@H](NC(=O)CC[C@@H](C1CCCCC1)N1Cc2cc(Oc3ccccc3)ncc2N=C1N)C(N)=O [Compound 111],100,6.96,,
CN(C(=O)C[C@@H](C1CCCCC1)N1Cc2cc(Oc3ccccc3)ncc2N=C1N)C1CCCCC1 [Compound 205],81,6.54,,
CC(C)CN(CCN1CCOCC1)C(=O)CC[C@@H](C(C)C)N1Cc2cc(Oc3ccccc3)ncc2N=C1N [Compound 190],86,6.72,,
CN(C(=O)CCC(C1CCCCC1)N1Cc2cc(Oc3ccccc3)ncc2N=C1N)C1CCS(=O)(=O)C1 (stereo not drawn) [Compound 170],48,6.08,,
NC1=Nc2cnc(Oc3ccccc3)cc2CN1[C@@H](CCC(=O)N1CCOCC1)C1CCCCC1 [Compound 166],85,6.70,,
CC(C)(C)CNC(=O)C[C@@H](C1CCCCC1)N1Cc2cc(Oc3ccccc3)ncc2N=C1N [Compound 200],50,6.11 and 6.12,,% Inhibition @ 1.0 μM [1]: 53%
"CC(C)[C@H](COCCC1CCCCC1)N1Cc2cc(Oc3ccccc3)ncc2N=C1N [Compound 232, 3-[1-(2-cyclohexyl-ethoxymethyl)-(R)-(2-methyl-propyl)]-6-phenoxy-3,4-dihydro-pyrido[3,4-d]pyrimidin-2-ylamine]",99,6.96,,
CC(C)(C)CCN(Cc1ccncc1)C(=O)CC[C@@H](C1CCCCC1)N1Cc2cc(Oc3ccccc3)ncc2N=C1N [Compound 137],101,6.77,,
CC(CO)NC(=O)C(COC(C)(C)C)NC(=O)CCC(C1CCCCC1)N1Cc2cc(Oc3ccccc3)ncc2N=C1N (stereo not drawn) [Compound 109],,6.92,95,
CC(C)(C)OC[C@@H](NC(=O)CC[C@@H](C1CCCCC1)N1Cc2cc(Oc3ccccc3)ncc2N=C1N)C(=O)N1CCCCC1 [Compound 100],,6.96,93,
"CC(C)(C)c1cn(C[C@@H](C2CCCCC2)N2Cc3cc(Oc4ccccc4)ncc3N=C2NO)nn1 [Compound 246, N-{3-[2-(4-tert-Butyl-[1,2,3]triazol-1-yl)-1-(R)-cyclohexyl-ethyl]-6-phenoxy-3,4-dihydro-pyrido[3,4-d]pyrimidin-2-yl}-hydroxylamine]",,,,"inhibition at 10 µM (10.0 μM, percent inhibition of the control activity, recombinant enzyme): 94%"
"CC(C)=CCOC[C@@H](C(C)C)N1Cc2cc(Oc3ccccc3)ncc2N=C1N [Compound 233, 3-[2-Methyl-1-(3-methyl-but-2-enyloxymethyl)-propyl]-6-phenoxy-3,4-dihydro-pyrido[3,4-d]pyrimidin-2-ylamine]",52,6.06,,
CC(C)(C)CNC(=O)CC[C@@H](C1CCCCC1)N1Cc2cc(Oc3ccccc3)ncc2N=C1N [Compound 204],100,7.11,,
CN(CCO)C(=O)CC[C@@H](C1CCCCC1)N1Cc2cc(Oc3ccccc3)ncc2N=C1N [Compound 171],77,6.57,,
CN(C(=O)CC[C@@H](C1CCOCC1)N1Cc2cc(Oc3ccccc3)ncc2N=C1N)[C@@H](COCc1ccccc1)C(=O)O [Compound 58],,6.57,57,
NC1=Nc2cnc(Oc3ccccc3)cc2CN1[C@@H](CCC(=O)N1CCCC[C@H]1CC(=O)O)C1CCCCC1 [Compound 93],,6.96,94,
NC1=Nc2cnc(Oc3ccccc3)cc2CN1[C@@H](CCC(=O)NCC1CC1)C1CCCCC1 [Compound 212],99,7.12,,
NC1=Nc2cnc(Oc3ccccc3)cc2CN1[C@@H](CCC(=O)N(Cc1ccncc1)C1CCCCC1)C1CCCCC1 [Compound 79],,6.82,88,
CC(C)CN(CCC[C@@H](C(C)C)N1Cc2cc(Oc3ccccc3)ncc2N=C1N)CCN1CCOCC1 [Compound 193],60,7.27,,
CC(C)(C)OCCN(Cc1cccs1)C(=O)CC[C@@H](C1CCCCC1)N1Cc2cc(Oc3ccccc3)ncc2N=C1N [Compound 154],102,6.96,,
